Among the test systems are SNB-78 CNS; LXFL 529 NSCLC; IGROV1 ovarian; DMS 273 small cell lung; DMS 114 small cell lung; HOP-92 NSCLC; PC-3 prostate; T-47D breast; MCF7 breast; BT-549 breast.
Holding throughout (assay): NCI anticancer screen, dose series, 48 h

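Five concentrations, 48 hours, 96-well plates. GI50: concentration for 50% inhibition of growth. TGI: concentration producing complete growth inhibition.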

With `CC1=C2C(=CC(C)(CO)C2O)C(=O)C(C)(O)C12CC2` (configuration not stated), the TGI in the assay on SNB-78 CNS came out at 0.0479 µM; in the assay on LXFL 529 NSCLC, 0.0292 µM; in the assay with IGROV1 ovarian, 0.106 µM; in the assay on DMS 273 small cell lung, 0.00892 µM; in the assay with DMS 114 small cell lung, 0.00769 µM; in the assay with HOP-92 NSCLC, 0.0144 µM.

Regarding `O=[N+]([O-])c1ccc2c(c1)OCCOCCOc1ccc([N+](=O)[O-])cc1OCCOCCO2`, the TGI with SNB-78 CNS, in the assay with IGROV1 ovarian, in the assay with DMS 273 small cell lung and in the assay on DMS 114 small cell lung was more than 100 µM each time.

Consider `CN(OC(=O)CC(=O)c1ccccc1)C(=O)Cc1ccccc1`, for which the TGI in the assay with SNB-78 CNS, in the assay on LXFL 529 NSCLC, in the assay on IGROV1 ovarian and with DMS 114 small cell lung was more than 100 µM each time.

For `COc1cccc(-c2nc(-c3ccc(NS(=O)(=O)c4ccccc4)cc3)[nH]c2-c2ccnc(Br)c2)c1`, the GI50 in the assay on PC-3 prostate was 2.39 µM; in the assay on T-47D breast it was 2.74 µM; in the assay on IGROV1 ovarian it was 3.84 µM; in the assay on MCF7 breast it was 2.64 µM; with HOP-92 NSCLC, 2.46 µM; with BT-549 breast, 2.72 µM. The TGI in the assay on PC-3 prostate was 16.9 µM; in the assay with T-47D breast, more than 100 µM; with IGROV1 ovarian it was more than 100 µM; in the assay with MCF7 breast, more than 100 µM; with HOP-92 NSCLC, 6.54 µM; with BT-549 breast, 9.21 µM.

Regarding `COCC1N=C(c2ccc(OC)c(OCc3ccccc3)c2OC)O[C@H]1c1ccccc1` (some centres not stated), the TGI in the assay on SNB-78 CNS was 96.2 µM; with LXFL 529 NSCLC it was 65 µM; in the assay on IGROV1 ovarian it was more than 100 µM; with DMS 273 small cell lung, 38.6 µM; in the assay with DMS 114 small cell lung, 44.9 µM; with HOP-92 NSCLC, 42.4 µM.

Regarding `CCOC(=O)c1sc2ncn(Cc3cccc(Cl)c3)c(=O)c2c1C`, the GI50 is 13.1 µM in the assay with PC-3 prostate; 15.6 µM with T-47D breast; 8.89 µM in the assay with IGROV1 ovarian; 15.8 µM with MCF7 breast; 12.2 µM in the assay with HOP-92 NSCLC; 17.2 µM in the assay with BT-549 breast. The TGI in the assay with PC-3 prostate came out at 25.8 µM; with T-47D breast, 29 µM; in the assay on IGROV1 ovarian, 21.2 µM; in the assay on MCF7 breast, 29.2 µM; in the assay with HOP-92 NSCLC, 24.5 µM; with BT-549 breast, 30.9 µM.

Consider `CN(C)CCCNC(=O)c1cc(NC(=O)c2cc(NC(=O)CCCN3c4ccccc4C=Cc4ccccc43)cn2C)cn1C`, for which the GI50 was 5.33 µM with PC-3 prostate; 17.1 µM in the assay with T-47D breast; 3.36 µM with IGROV1 ovarian; 4.2 µM with MCF7 breast; 10 µM in the assay with HOP-92 NSCLC; 4.19 µM with BT-549 breast. Moreover, the TGI was more than 100 µM in the assay on PC-3 prostate; more than 100 µM in the assay on T-47D breast; 8.8 µM in the assay with IGROV1 ovarian; more than 100 µM in the assay on MCF7 breast; 78.7 µM in the assay on HOP-92 NSCLC; 69.8 µM with BT-549 breast.

For the molecule `CCOC(=O)Oc1c(OC)cc(C(=O)c2ccc(OC)c(OC(=O)CCl)c2OC)cc1OC`, the GI50 with PC-3 prostate is 2.83 µM; with T-47D breast, 7.32 µM; with IGROV1 ovarian it was 3.36 µM; with MCF7 breast it was 0.88 µM; with HOP-92 NSCLC it was 1.78 µM; with BT-549 breast, 0.996 µM. In addition, the TGI in the assay with PC-3 prostate is more than 100 µM; in the assay on T-47D breast, more than 100 µM; in the assay on IGROV1 ovarian it was more than 100 µM; with MCF7 breast, more than 100 µM; in the assay with HOP-92 NSCLC it was more than 100 µM; in the assay on BT-549 breast, 9.5 µM.

As for `COc1ccc(/C=C(\C#N)n2nnc3cc(Cl)ccc32)cc1`, the GI50 was 0.498 µM in the assay with PC-3 prostate; 0.407 µM in the assay with T-47D breast; 0.606 µM with IGROV1 ovarian; 0.375 µM in the assay on MCF7 breast; 0.552 µM in the assay with HOP-92 NSCLC; 1.13 µM with BT-549 breast. Moreover, the TGI is more than 75.2 µM in the assay on PC-3 prostate; more than 37.9 µM in the assay on IGROV1 ovarian; more than 33.3 µM with MCF7 breast; 4.27 µM in the assay with HOP-92 NSCLC; more than 100 µM in the assay on BT-549 breast.

In the case of `O=C(O)CSCC(=O)c1ccccc1`, the TGI with PC-3 prostate, in the assay on T-47D breast, in the assay with IGROV1 ovarian, in the assay on MCF7 breast, with HOP-92 NSCLC and with BT-549 breast was more than 100 µM each time.

As for `COC(=O)c1ccc(-c2nc3cc(F)c(F)cc3nc2C#N)cc1`, the GI50 in the assay with PC-3 prostate was 11.7 µM; with T-47D breast, 12.8 µM; in the assay with IGROV1 ovarian it was 9.62 µM; with MCF7 breast it was 8.86 µM; with HOP-92 NSCLC it was 9.8 µM; in the assay on BT-549 breast, 8.24 µM. In addition, the TGI in the assay with PC-3 prostate worked out at 26.6 µM; in the assay with T-47D breast it was 32 µM; in the assay on IGROV1 ovarian, 20.4 µM; in the assay with MCF7 breast, 23.6 µM; in the assay on HOP-92 NSCLC it was 21.1 µM; in the assay on BT-549 breast it was 16.6 µM.

As to `COc1ccc2c(CN3CCC(CO)CC3)cc3cc4c(cc3c2c1)OCO4`, the GI50 is 0.236 µM in the assay on PC-3 prostate; 0.418 µM in the assay with T-47D breast; 0.305 µM in the assay on IGROV1 ovarian; 0.211 µM in the assay with MCF7 breast; 0.0911 µM in the assay on HOP-92 NSCLC; 0.6 µM in the assay with BT-549 breast. Further, the TGI was found to be 1.02 µM in the assay with PC-3 prostate; 9.17 µM in the assay on T-47D breast; 11.6 µM in the assay with IGROV1 ovarian; 2.55 µM in the assay on MCF7 breast; 0.633 µM in the assay with HOP-92 NSCLC; 3.87 µM in the assay with BT-549 breast.

As to `COc1ccc(/C=C/C(=O)/C=C(/C=C/c2ccc(OC)c(OC)c2)OB(F)F)cc1OC`, the GI50 is 1.05 µM in the assay on PC-3 prostate; 0.805 µM in the assay on T-47D breast; 0.486 µM in the assay with IGROV1 ovarian; 0.4 µM with MCF7 breast; 1.71 µM in the assay on HOP-92 NSCLC; 1.13 µM in the assay on BT-549 breast. For the same molecule, the TGI in the assay on PC-3 prostate was 7.51 µM; in the assay with T-47D breast, more than 100 µM; in the assay with IGROV1 ovarian, 4.41 µM; with MCF7 breast, more than 100 µM; with HOP-92 NSCLC, 4.89 µM; in the assay with BT-549 breast, 2.68 µM.

On to `O=C(Nc1ccccc1)O/N=C1/CCCC/C1=C\c1ccccc1`, for which the TGI was determined as 33 µM in the assay on SNB-78 CNS; 21.4 µM in the assay with LXFL 529 NSCLC; 17.7 µM with IGROV1 ovarian; 31.2 µM in the assay on DMS 273 small cell lung; 24.8 µM with DMS 114 small cell lung; 46 µM in the assay with HOP-92 NSCLC.

These data come from PubChem BioAssay (NCI).
